# In patent US12077537B2 (Gilead Sciences, Inc., priority 2020, dated 2024):
# Test system: HIV-IIIb
# Experiment: Antiviral assay in MT4 cells
# Type: cell-based
# Settings: Human immunodeficiency virus 1, MT4, 120 h; MT-4 cells mixed with HIV-IIIb at m.o.i. 0.003; 5 days at 37° C.; CellTiter-Glo luminescence; 50% decrease in signal, a measure of HIV-1 replication
# Procedure, shortened: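 Compound, tested at ten 3-fold dilutions in quadruplicate in 10% FBS medium, received MT-4 cells pre-mixed 1 hour with HIV-IIIb (m.o.i. 0.003). Protection was read as luminescent cell viability (CellTiter-Glo) after 5 days' culture at 37° C.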
row,SMILES,EC50 [nM]
1,"Cn1nc(NS(C)(=O)=O)c2cccc(-c3cc4sc(N5CCC6(CC5)CNC(=O)O6)nc4nc3[C@H](Cc3cc(F)cc(F)c3)NC(=O)Cn3nc(C(F)(F)F)c4c3C(F)(F)[C@@H]3C[C@H]43)c21 [Example 80, 2-((3bS,4aR)-5,5-difluoro-3-(trifluoromethyl)-3b,4,4a,5-tetrahydro-1H-cyclopropa[3,4]cyclopenta[1,2-c]pyrazol-1-yl)-N—((S)-2-(3,5-difluorophenyl)-1-(6-(1-methyl-3-(methylsulfonamido)-1H-indazol-7-yl)-2-(2-oxo-1-oxa-3,8-diazaspiro[4.5]decan-8-yl)thiazolo[4,5-b]pyridin-5-yl)ethyl)acetamide]",24.8
2,"Cn1nc(NS(C)(=O)=O)c2cccc(-c3cc4sc(NC5(C)CC5)nc4nc3[C@H](Cc3cc(F)cc(F)c3)NC(=O)Cn3nc(C(F)(F)F)c4c3C(F)(F)[C@@H]3C[C@H]43)c21 [Example 81, 2-((3bS,4aR)-5,5-difluoro-3-(trifluoromethyl)-3b,4,4a,5-tetrahydro-1H-cyclopropa[3,4]cyclopenta[1,2-c]pyrazol-1-yl)-N—((S)-2-(3,5-difluorophenyl)-1-(6-(1-methyl-3-(methylsulfonamido)-1H-indazol-7-yl)-2-((1-methylcyclopropyl)amino)thiazolo[4,5-b]pyridin-5-yl)ethyl)acetamide]",18.6
3,"Cn1nc(NS(C)(=O)=O)c2cccc(-c3cc4sc(N5CCOCC5)nc4nc3[C@H](Cc3cc(F)cc(F)c3)NC(=O)Cn3nc(C(F)(F)F)c4c3C(F)(F)[C@@H]3C[C@H]43)c21 [Example 82, 2-((3bS,4aR)-5,5-difluoro-3-(trifluoromethyl)-3b,4,4a,5-tetrahydro-1H-cyclopropa[3,4]cyclopenta[1,2-c]pyrazol-1-yl)-N—((S)-2-(3,5-difluorophenyl)-1-(6-(1-methyl-3-(methylsulfonamido)-1H-indazol-7-yl)-2-morpholinothiazolo[4,5-b]pyridin-5-yl)ethyl)acetamide]",6.6
4,"Cn1nc(NS(C)(=O)=O)c2cccc(-c3cc4sc(N5CCN(C(=O)C(C)(C)N)CC5)nc4nc3[C@H](Cc3cc(F)cc(F)c3)NC(=O)Cn3nc(C(F)(F)F)c4c3C(F)(F)[C@@H]3C[C@H]43)c21 [Example 83, N—((S)-1-(2-(4-(2-amino-2-methylpropanoyl)piperazin-1-yl)-6-(1-methyl-3-(methylsulfonamido)-1H-indazol-7-yl)thiazolo[4,5-b]pyridin-5-yl)-2-(3,5-difluorophenyl)ethyl)-2-((3bS,4aR)-5,5-difluoro-3-(trifluoromethyl)-3b,4,4a,5-tetrahydro-1H-cyclopropa[3,4]cyclopenta[1,2-c]pyrazol-1-yl)acetamide]",52.3
5,"Cn1nc(NS(C)(=O)=O)c2cccc(-c3cc4sc(N5CCC6(CC5)CNC6=O)nc4nc3[C@H](Cc3cc(F)cc(F)c3)NC(=O)Cn3nc(C(F)(F)F)c4c3C(F)(F)[C@@H]3C[C@H]43)c21 [Example 84, 2-((3bS,4aR)-5,5-difluoro-3-(trifluoromethyl)-3b,4,4a,5-tetrahydro-1H-cyclopropa[3,4]cyclopenta[1,2-c]pyrazol-1-yl)-N—((S)-2-(3,5-difluorophenyl)-1-(6-(1-methyl-3-(methylsulfonamido)-1H-indazol-7-yl)-2-(1-oxo-2,7-diazaspiro[3.5]nonan-7-yl)thiazolo[4,5-b]pyridin-5-yl)ethyl)acetamide]",9.9
6,"Cn1nc(NS(C)(=O)=O)c2cccc(-c3cc4sc(N5CC6(CCN6)C5)nc4nc3[C@H](Cc3cc(F)cc(F)c3)NC(=O)Cn3nc(C(F)(F)F)c4c3C(F)(F)[C@@H]3C[C@H]43)c21 [Example 85, 2-((3bS,4aR)-5,5-difluoro-3-(trifluoromethyl)-3b,4,4a,5-tetrahydro-1H-cyclopropa[3,4]cyclopenta[1,2-c]pyrazol-1-yl)-N—((S)-2-(3,5-difluorophenyl)-1-(6-(1-methyl-3-(methylsulfonamido)-1H-indazol-7-yl)-2-(1,6-diazaspiro[3.3]heptan-6-yl)thiazolo[4,5-b]pyridin-5-yl)ethyl)acetamide]",21.8
